Reference: PMC11378297, “Discovery and Profiling of New Multimodal Phenylglycinamide Derivatives as Potent Antiseizure and Antinociceptive Drug Candidates” (ACS Chemical Neuroscience, 2024)
Where two headings read alike, the source gives them in different places.

Assays:
TRPA1 (h) = biological target: T1, TRPA1 (h) (Homo sapiens, UniProt O75762); experiment: TRPA1 (h) cell based antagonist calcium flux assay; conditions: HEK293, human recombinant HEK-293 cell, read-out: % inhibition of control agonist response
T1 construct: Eurofins
T1 sequence (O75762 whole entry): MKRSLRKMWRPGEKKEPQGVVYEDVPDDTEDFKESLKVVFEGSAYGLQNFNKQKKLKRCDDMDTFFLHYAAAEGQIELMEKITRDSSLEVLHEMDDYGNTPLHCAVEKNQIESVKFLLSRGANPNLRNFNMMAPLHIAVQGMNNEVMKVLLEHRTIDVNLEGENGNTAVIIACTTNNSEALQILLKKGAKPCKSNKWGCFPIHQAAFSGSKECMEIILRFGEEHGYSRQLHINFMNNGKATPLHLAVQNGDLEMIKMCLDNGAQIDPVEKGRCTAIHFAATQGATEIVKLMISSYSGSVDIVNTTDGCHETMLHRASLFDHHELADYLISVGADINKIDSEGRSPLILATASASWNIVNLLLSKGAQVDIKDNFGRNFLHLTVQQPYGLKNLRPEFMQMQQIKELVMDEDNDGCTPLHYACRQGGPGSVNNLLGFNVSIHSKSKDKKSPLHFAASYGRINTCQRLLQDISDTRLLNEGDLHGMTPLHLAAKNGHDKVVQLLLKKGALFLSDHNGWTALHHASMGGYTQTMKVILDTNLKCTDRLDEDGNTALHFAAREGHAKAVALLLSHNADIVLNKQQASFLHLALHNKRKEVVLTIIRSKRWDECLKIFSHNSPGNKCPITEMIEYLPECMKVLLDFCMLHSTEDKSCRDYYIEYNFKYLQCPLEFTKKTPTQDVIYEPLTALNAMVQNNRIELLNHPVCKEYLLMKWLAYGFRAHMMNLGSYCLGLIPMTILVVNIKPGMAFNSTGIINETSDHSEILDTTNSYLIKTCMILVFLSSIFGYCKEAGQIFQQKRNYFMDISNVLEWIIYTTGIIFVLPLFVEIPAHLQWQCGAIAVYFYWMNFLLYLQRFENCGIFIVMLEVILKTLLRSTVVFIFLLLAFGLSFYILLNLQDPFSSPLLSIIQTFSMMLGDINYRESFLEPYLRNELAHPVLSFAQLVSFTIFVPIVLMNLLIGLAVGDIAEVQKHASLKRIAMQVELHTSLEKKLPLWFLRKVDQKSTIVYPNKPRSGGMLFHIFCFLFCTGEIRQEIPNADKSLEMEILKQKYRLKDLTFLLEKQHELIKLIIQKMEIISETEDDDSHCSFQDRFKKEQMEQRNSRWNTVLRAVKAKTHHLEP
Method: Using previously described testing methodologies, binding/functional tests were conducted on a commercial basis at Eurofins Laboratories (Poitiers, France) and Eurofins Panlabs Discovery Services Taiwan, Ltd. (New Taipei City, Taiwan); see Table S9 for more information.
Table S9. Radioligand binding and functional assays. […]
TRPA1 (h) transient potential ion channel cell based antagonist calcium flux assay […]
Assays were performed commercially in Eurofins Laboratories (Poitiers, France) or Eurofins Panlabs Discovery Services
Taiwan, Ltd. (New Taipei City, Taiwan).

[1] = tested on: fast voltage-gated sodium channels in rat prefrontal cortex pyramidal neurons; experiment: patch-clamp of fast voltage-gated sodium currents in prefrontal cortex pyramidal neurons; assay type: cell-based; conditions: 10 μM, control = 1.0, n = 5
Text: Figure 9 Compounds (R)-31 and (R)-32 inhibit fast voltage-gated sodium currents in prefrontal cortex pyramidal neurons. (A) Example sodium current recordings in control (black trace), after application of (R)-31 (blue trace) and after wash-out (red trace). Current traces were evoked by a rectangular voltage-step. (B) Influence of (R)-31 on sodium current is shown on an example neuron. Current traces were evoked once every 10 s. […] (C) Averaged, normalized maximal sodium current amplitudes in control, in the presence of (R)-31 and after wash-out. […] (D) Example sodium current recordings in control (black trace), after application of (R)-32 (blue trace) and after wash-out (red trace). Current traces were evoked by a rectangular voltage-step. (E) Influence of (R)-32 on sodium current is shown on an example neuron. Current traces were evoked once every 10 s. […] (F) Averaged, normalized maximal sodium current amplitudes in control, in the presence of (R)-32 and after wash-out.
Patch-clamp studies were carried out in prefrontal cortex pyramidal neurons. The methodology of slice preparation, preparation of dispersed cortical neurons, and sodium currents recording technique were the same as in our previous study.[99]

[2] = biological target: T2, Voltage-Gated Sodium channel hNav1.2 (Homo sapiens, UniProt Q99250); experiment: human sodium ion channel cell based automated patch clamp assay, hNav1.2
T2 construct: Eurofins Discovery (St. Charles, MO, USA)
Method: (§1) Therefore, as a part of the more detailed functional characterization using automated patch clamp method, we tested the influence of (R)-32 on sodium currents mediated by several Navx channels comprising 5 different human subunits, namely, Nav1.1, Nav1.2, Nav1.3, Nav1.6, and Nav1.7, which are involved in both seizure and/or pain modulation.[74],[80],[81] As summarized in Tables S4–S8, (R)-32 starting from 10 μM effectively and in concentration-dependent manner decreased sodium currents mediated by all aforementioned sodium channel subunits. Furthermore, (R)-32 appeared to bind exclusively to sodium channels that are in an inactivated state (see pulse 2 in Tables S4–S8), but not to the channels that are in an open state (pulse 1) (for additional details, see Supporting Information).
(§2) Human sodium ion channels cell based automated patch clamp assay
(§3) Human sodium ion channels cell based automated patch clamp assays: sodium channels exist in, a) a resting or closed state at -120 mV, b) a transient open state that inactivates to c) inactivated state at -10 mV. Sodium current inhibition within 1-2 ms of channel opening at 0 mV is open channel inhibition (pulse 1). In order to completely inactivate the sodium channels and facilitate inactivated state-dependent binding of the drug, the channels were kept at […] ( -10 mV) longer (pulsed for 500 ms) and then stepped back to -120 mV for 10 ms to recover from inactivation into resting or closed state (but the channels that had drug bound to them will not recover from inactivation and will not open) before stepping to -10 mV for 50 ms (pulse 2) to mea sure sodium channels that are available to open. The higher inhibition seen at pulse 2 is due to inactivated state -dependent inhibition. Pulse 1 and 2 are used to investigate drug binding to the open state and inactivated state of the Na channels, respectively. Each concentration of compound is applied for 5 minutes. The results obtained for (R)-32 are summerized in Tables S4–S8. […]
(§4) Compound Concentration Measurement % Inhibition
(§5) Data interpretation: Results showing inhibition greater than 50% are considered to represent significant effects of test compound and have been bolded for (R)-32 for better visualization. The studies were carried out in Eurofins Discovery (St. Charles, MO, USA).

[3] = biological target: T3, Voltage-Gated Sodium channel hNav1.6 (Homo sapiens, UniProt Q9UQD0); experiment: human sodium ion channel cell based automated patch clamp assay, hNav1.6
T3 construct: Eurofins Discovery (St. Charles, MO, USA)
T3 sequence (Q9UQD0 whole entry): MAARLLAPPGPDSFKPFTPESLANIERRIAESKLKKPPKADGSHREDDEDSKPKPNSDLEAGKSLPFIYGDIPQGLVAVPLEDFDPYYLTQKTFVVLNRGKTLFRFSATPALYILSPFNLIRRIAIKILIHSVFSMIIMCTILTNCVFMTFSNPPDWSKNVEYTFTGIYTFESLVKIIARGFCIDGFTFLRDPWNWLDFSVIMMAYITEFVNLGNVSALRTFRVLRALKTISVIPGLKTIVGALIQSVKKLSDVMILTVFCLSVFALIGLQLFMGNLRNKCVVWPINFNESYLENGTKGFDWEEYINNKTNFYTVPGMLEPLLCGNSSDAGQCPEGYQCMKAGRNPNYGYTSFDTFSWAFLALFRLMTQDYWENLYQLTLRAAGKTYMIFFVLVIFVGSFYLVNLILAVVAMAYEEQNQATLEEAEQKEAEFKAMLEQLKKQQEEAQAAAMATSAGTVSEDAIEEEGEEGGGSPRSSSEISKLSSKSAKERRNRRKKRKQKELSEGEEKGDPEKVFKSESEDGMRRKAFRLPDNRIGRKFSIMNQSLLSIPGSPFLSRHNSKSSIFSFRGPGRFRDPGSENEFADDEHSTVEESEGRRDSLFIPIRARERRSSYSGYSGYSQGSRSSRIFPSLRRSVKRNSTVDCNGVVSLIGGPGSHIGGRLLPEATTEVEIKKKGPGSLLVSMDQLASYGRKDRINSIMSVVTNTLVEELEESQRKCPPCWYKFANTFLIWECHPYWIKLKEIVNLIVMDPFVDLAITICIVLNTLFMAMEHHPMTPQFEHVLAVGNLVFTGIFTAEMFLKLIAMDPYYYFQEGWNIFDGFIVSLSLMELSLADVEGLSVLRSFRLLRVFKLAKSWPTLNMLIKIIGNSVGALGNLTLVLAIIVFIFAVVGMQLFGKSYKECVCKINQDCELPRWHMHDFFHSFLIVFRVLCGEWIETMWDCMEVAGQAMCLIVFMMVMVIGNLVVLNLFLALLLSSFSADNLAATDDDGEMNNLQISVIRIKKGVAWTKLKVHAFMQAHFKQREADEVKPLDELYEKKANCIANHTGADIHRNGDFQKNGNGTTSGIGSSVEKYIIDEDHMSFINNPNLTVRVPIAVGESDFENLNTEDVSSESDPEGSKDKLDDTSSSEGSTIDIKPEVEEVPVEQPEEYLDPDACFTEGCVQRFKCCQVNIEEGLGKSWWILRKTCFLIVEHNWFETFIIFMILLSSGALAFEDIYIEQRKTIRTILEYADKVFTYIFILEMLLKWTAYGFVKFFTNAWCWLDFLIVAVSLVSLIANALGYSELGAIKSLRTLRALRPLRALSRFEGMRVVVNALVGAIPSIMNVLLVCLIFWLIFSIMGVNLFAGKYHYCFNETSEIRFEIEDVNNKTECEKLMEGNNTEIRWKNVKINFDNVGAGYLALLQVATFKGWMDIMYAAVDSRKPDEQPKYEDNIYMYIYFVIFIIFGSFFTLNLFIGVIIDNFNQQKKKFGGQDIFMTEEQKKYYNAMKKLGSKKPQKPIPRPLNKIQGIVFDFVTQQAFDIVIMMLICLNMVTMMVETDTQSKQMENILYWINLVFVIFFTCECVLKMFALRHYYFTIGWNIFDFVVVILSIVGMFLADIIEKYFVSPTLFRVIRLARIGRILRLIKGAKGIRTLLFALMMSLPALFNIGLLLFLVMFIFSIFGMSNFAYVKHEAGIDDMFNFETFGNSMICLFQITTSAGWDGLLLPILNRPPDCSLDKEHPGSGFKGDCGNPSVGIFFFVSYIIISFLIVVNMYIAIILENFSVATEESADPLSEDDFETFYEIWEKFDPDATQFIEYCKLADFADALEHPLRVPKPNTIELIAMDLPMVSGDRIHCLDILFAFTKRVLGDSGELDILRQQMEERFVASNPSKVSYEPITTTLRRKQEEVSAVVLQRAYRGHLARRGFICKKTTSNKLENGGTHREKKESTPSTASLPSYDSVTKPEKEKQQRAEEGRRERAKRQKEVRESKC
Method: as §1, §2, §3, §4, §5

[4] = biological target: T4, Voltage-Gated Sodium channel hNav1.7 (Homo sapiens, UniProt Q15858); experiment: human sodium ion channel cell based automated patch clamp assay, hNav1.7
T4 construct: Eurofins Discovery (St. Charles, MO, USA)
T4 sequence (Q15858 whole entry): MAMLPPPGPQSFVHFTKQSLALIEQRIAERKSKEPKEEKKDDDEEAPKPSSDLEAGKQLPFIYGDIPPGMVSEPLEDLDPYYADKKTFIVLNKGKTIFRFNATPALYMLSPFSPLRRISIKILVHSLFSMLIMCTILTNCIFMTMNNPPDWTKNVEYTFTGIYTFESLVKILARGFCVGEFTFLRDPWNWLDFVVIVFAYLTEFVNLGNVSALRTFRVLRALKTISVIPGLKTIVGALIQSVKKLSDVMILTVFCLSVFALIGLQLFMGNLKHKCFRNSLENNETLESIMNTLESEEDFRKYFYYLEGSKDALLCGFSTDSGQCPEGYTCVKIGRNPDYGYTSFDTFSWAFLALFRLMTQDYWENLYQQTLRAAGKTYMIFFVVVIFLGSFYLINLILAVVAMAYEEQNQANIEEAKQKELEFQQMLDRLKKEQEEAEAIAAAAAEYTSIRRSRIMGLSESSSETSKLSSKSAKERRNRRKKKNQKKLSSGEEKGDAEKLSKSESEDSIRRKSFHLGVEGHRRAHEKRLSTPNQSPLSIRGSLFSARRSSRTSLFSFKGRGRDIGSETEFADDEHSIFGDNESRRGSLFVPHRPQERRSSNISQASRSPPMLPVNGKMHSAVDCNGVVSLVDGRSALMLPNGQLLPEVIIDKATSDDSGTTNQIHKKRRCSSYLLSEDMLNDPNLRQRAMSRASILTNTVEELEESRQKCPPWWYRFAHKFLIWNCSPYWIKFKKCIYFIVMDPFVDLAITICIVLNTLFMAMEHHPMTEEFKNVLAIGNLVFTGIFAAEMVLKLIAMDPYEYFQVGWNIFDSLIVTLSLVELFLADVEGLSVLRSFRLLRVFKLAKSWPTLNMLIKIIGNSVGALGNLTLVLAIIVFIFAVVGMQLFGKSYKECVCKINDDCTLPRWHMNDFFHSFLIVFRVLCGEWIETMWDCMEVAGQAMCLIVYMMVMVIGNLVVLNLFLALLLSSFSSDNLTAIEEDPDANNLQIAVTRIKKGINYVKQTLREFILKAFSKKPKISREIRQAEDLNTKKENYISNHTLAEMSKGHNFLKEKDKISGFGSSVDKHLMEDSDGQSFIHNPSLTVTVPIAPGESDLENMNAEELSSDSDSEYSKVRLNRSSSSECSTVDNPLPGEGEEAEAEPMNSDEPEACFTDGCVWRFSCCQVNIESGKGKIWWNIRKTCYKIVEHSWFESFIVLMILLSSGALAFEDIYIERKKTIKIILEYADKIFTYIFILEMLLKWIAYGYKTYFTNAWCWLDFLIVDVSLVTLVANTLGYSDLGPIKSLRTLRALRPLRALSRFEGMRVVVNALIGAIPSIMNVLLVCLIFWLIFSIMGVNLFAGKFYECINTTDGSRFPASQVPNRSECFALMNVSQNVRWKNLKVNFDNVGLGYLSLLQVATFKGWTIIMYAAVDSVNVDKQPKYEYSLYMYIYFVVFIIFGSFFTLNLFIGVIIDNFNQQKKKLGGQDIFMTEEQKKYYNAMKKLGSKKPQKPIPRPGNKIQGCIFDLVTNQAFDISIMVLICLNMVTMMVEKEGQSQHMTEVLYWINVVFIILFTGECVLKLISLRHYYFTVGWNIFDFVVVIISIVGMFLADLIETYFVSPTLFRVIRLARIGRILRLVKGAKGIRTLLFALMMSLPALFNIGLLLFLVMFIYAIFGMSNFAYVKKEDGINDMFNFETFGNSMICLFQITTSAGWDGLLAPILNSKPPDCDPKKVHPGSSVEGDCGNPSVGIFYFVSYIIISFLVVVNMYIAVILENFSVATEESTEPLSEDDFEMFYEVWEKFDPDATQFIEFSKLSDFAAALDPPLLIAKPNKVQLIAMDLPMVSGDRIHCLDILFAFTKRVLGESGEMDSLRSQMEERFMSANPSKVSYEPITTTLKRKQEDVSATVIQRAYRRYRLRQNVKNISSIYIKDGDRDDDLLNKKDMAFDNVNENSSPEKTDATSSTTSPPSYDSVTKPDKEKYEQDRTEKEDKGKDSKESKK
Text: Human sodium ion channels cell based automated patch clamp assays: sodium channels exist in, a) a resting or closed state at -120 mV, b) a transient open state that inactivates to c) inactivated state at -10 mV. Sodium current inhibition within 1-2 ms of channel opening at 0 mV is open channel inhibition (pulse 1). In order to completely inactivate the sodium channels and facilitate inactivated state-dependent binding of the drug, the channels were kept at open state ( -10 mV) longer (pulsed for 500 ms) and then stepped back to -120 mV for 10 ms to recover from inactivation into resting or closed
open) before stepping to -10 mV for 50 ms (pulse 2) to mea sure sodium channels that are available to open. […] Pulse 1 and 2 are used to investigate drug binding to the open state and inactivated state of the Na channels, respectively. Each concentration of compound is applied for 5 minutes.
Voltage-Gated Sodium channel hNav1.1

[5] = tested on: OXPT-induced tactile allodynia, mice; experiment: oxaliplatin (OXPT)-induced peripheral neuropathy, von Frey test
Method: In experimental conditions, these mechanisms trigger mechanical allodynia, which can be observed as a decrease in the pain threshold, as assessed by the von Frey test.[37]
We tested (R)-31 at the doses of 50, 75, and 100 mg/kg (Figure 7C).
The experimental groups consisted of 10 adult male Albino Swiss mice (CD-1, 18–25 g). Each animal was tested only once. Immediately after the assay, the animals were sacrificed by cervical dislocation. Behavioral measurements were observed by trained observers. […] The tested materials were administered intraperitoneally half an hour before the test, after being suspended in a 1% aqueous solution of Tween-80. 30 min before the test, the animals in the control group (negative control) received an appropriate dose of the vehicle (Tween-80, 1% aqueous solution, i.p.).

[6] = hNav1.2, Pulse 1 (open state), read-out: % Inhibition Mean
[7] = hNav1.2, Pulse 1 (open state), read-out: % Inhibition n1
[8] = hNav1.2, Pulse 1 (open state), read-out: % Inhibition n2
[9] = hNav1.2, Pulse 2 (inactivated state), read-out: % Inhibition Mean
[10] = hNav1.2, Pulse 2 (inactivated state), read-out: % Inhibition n1
[11] = hNav1.2, Pulse 2 (inactivated state), read-out: % Inhibition n2
[12] = hNav1.6, Pulse 1 (open state), read-out: % Inhibition Mean
[13] = hNav1.6, Pulse 1 (open state), read-out: % Inhibition n1
[14] = hNav1.6, Pulse 1 (open state), read-out: % Inhibition n2
[15] = hNav1.6, Pulse 2 (inactivated state), read-out: % Inhibition Mean
[16] = hNav1.6, Pulse 2 (inactivated state), read-out: % Inhibition n1
[17] = hNav1.6, Pulse 2 (inactivated state), read-out: % Inhibition n2
[18] = hNav1.7, Pulse 1 (open state), read-out: % Inhibition Mean
[19] = hNav1.7, Pulse 1 (open state), read-out: % Inhibition n1
[20] = hNav1.7, Pulse 1 (open state), read-out: % Inhibition n2
[21] = hNav1.7, Pulse 2 (inactivated state), read-out: % Inhibition Mean
[22] = hNav1.7, Pulse 2 (inactivated state), read-out: % Inhibition n1
[23] = hNav1.7, Pulse 2 (inactivated state), read-out: % Inhibition n2

## CC(=O)N[C@@H](C(=O)N1CCN(c2cccc(OC(F)(F)F)c2)CC1)c1ccccc1 [(R)-32, (R)-N-(2-Oxo-1-phenyl-2-(4-(3-(trifluoromethoxy)phenyl)piperazin-1-yl)ethyl)acetamide]
TRPA1 (h)
  inhibition at 10 µM: 9.6%
[1]
  averaged, maximal-normalized amplitude of voltage-gated sodium currents after application: 0.61 ± 0.07
  averaged, maximal-normalized amplitude of voltage-gated sodium currents after wash-out: 0.72 ± 0.08
[2]; [6]
  inhibition at 1 µM: 0.79%
  inhibition at 10 µM: 3.6%
  inhibition at 100 µM: 33.5%
[2]; [7]
  inhibition at 1 µM: 1.86%
  inhibition at 10 µM: 2.03%
  inhibition at 100 µM: 35.7%
[2]; [8]
  inhibition at 1 µM: -0.29%
  inhibition at 10 µM: 5.18%
  inhibition at 100 µM: 31.3%
[2]; [9]
  inhibition at 1 µM: 1.62%
  inhibition at 10 µM: 41.9%
  inhibition at 100 µM: 100%
[2]; [10]
  inhibition at 1 µM: 1.9%
  inhibition at 10 µM: 45.5%
  inhibition at 100 µM: 100%
[2]; [11]
  inhibition at 1 µM: 1.33%
  inhibition at 10 µM: 38.2%
  inhibition at 100 µM: 100%
[3]; [12]
  inhibition at 1 µM: -5.14%
  inhibition at 10 µM: -10.8%
  inhibition at 100 µM: -0.11%
[3]; [13]
  inhibition at 1 µM: -8.4%
  inhibition at 10 µM: -14.4%
  inhibition at 100 µM: -1.89%
[3]; [14]
  inhibition at 1 µM: -1.89%
  inhibition at 10 µM: -7.25%
  inhibition at 100 µM: 1.68%
[3]; [15]
  inhibition at 1 µM: -4.59%
  inhibition at 10 µM: 39.9%
  inhibition at 100 µM: 108%
[3]; [16]
  inhibition at 1 µM: -10.1%
  inhibition at 10 µM: 53%
  inhibition at 100 µM: 121%
[3]; [17]
  inhibition at 1 µM: 0.93%
  inhibition at 10 µM: 26.9%
  inhibition at 100 µM: 95.2%
[4]; [18]
  inhibition at 1 µM: -5.74%
  inhibition at 10 µM: 6.15%
  inhibition at 100 µM: 22.9%
[4]; [19]
  inhibition at 1 µM: -4.13%
  inhibition at 10 µM: -0.03%
  inhibition at 100 µM: 19.2%
[4]; [20]
  inhibition at 1 µM: -7.35%
  inhibition at 10 µM: 12.3%
  inhibition at 100 µM: 26.5%
[4]; [21]
  inhibition at 1 µM: -3.08%
  inhibition at 10 µM: 37.8%
  inhibition at 100 µM: 98.4%
[4]; [22]
  inhibition at 1 µM: -3.09%
  inhibition at 10 µM: 35.3%
  inhibition at 100 µM: 98.7%
[4]; [23]
  inhibition at 1 µM: -3.07%
  inhibition at 10 µM: 40.4%
  inhibition at 100 µM: 98%
[5]; 25 mg/kg i.p.
  pain threshold, early phase (3 h after OXPT), % of the baseline: 102%
  pain threshold, late phase (7 days after OXPT), % of the baseline: 68%
[5]; 50 mg/kg i.p.
  pain threshold, early phase (3 h after OXPT), % of the initial value/baseline: 90%
  pain threshold, late phase (7 days after OXPT), % of the baseline: 94%
[5]; 75 mg/kg i.p.
  pain threshold, early phase (3 h after OXPT), % of the initial value/baseline: 109%
  pain threshold, late phase (7 days after OXPT), % of the baseline: 108%
